In the NIST ThermoML archive (doi:10.1016/j.jct.2013.01.013):

Assay: xn = mol fraction of the nth substance listed
Details: 101 kPa, Liquid; for viscosity: Capillary tube (Ostwald / Ubbelohde) method; for speed of sound: Linear variable-path acoustic interferometer; for mass density: Pycnometric method

C=C(C)C(=O)OC [methyl methacrylate] + CN(C)C=O
Details	mass density [kg/m3]	speed of sound [m/s]	viscosity [mPa·s]
288.15 K, x1 = 0.0696	953.35	1484.1	0.905
288.15 K, x1 = 0.1417	953.07	1464.4	0.868
288.15 K, x1 = 0.211	952.8	1445.5	0.8355
288.15 K, x1 = 0.2855	952.5	1425.2	0.8041
288.15 K, x1 = 0.3573	952.22	1405.4	0.7765
288.15 K, x1 = 0.4308	951.91	1384.8	0.7513
288.15 K, x1 = 0.5042	951.58	1363.9	0.729
288.15 K, x1 = 0.578	951.23	1342.6	0.7083
288.15 K, x1 = 0.6552	950.86	1320	0.6885
288.15 K, x1 = 0.7204	950.53	1300.7	0.6742
288.15 K, x1 = 0.7873	950.19	1280.7	0.6612
288.15 K, x1 = 0.8548	949.84	1260.4	0.6505
288.15 K, x1 = 0.9268	949.47	1238.7	0.6417
288.15 K, x1 = 1	949.1	1216.8	0.634
293.15 K, x1 = 0.0696	948.76	1466.8	0.834
293.15 K, x1 = 0.1417	948.39	1447.2	0.8009
293.15 K, x1 = 0.211	948.03	1428.4	0.7713
293.15 K, x1 = 0.2855	947.64	1408.2	0.742
293.15 K, x1 = 0.3573	947.25	1388.5	0.717
293.15 K, x1 = 0.4308	946.85	1368	0.6941
293.15 K, x1 = 0.5042	946.43	1347.2	0.6736
293.15 K, x1 = 0.578	946	1326	0.6552
293.15 K, x1 = 0.6552	945.53	1303.5	0.6382
293.15 K, x1 = 0.7204	945.13	1284.3	0.6261
293.15 K, x1 = 0.7873	944.72	1264.4	0.6149
293.15 K, x1 = 0.8548	944.29	1244.1	0.6055
293.15 K, x1 = 0.9268	943.83	1222.5	0.598
293.15 K, x1 = 1	943.37	1200.5	0.5903
298.15 K, x1 = 0.0696	944.17	1450	0.7818
298.15 K, x1 = 0.1417	943.71	1430.6	0.7509
298.15 K, x1 = 0.211	943.26	1411.8	0.7233
298.15 K, x1 = 0.2855	942.77	1391.5	0.6958
298.15 K, x1 = 0.3573	942.29	1371.8	0.672
298.15 K, x1 = 0.4308	941.79	1351.3	0.651
298.15 K, x1 = 0.5042	941.28	1330.4	0.632
298.15 K, x1 = 0.578	940.76	1309.2	0.6151
298.15 K, x1 = 0.6552	940.21	1286.7	0.6
298.15 K, x1 = 0.7204	939.73	1267.4	0.5885
298.15 K, x1 = 0.7873	939.24	1247.4	0.5786
298.15 K, x1 = 0.8548	938.74	1227.1	0.57
298.15 K, x1 = 0.9268	938.19	1205.3	0.5625
298.15 K, x1 = 1	937.63	1183.6	0.5544
303.15 K, x1 = 0.0696	939.58	1430.3	0.737
303.15 K, x1 = 0.1417	939.03	1411.3	0.7088
303.15 K, x1 = 0.211	938.49	1393	0.683
303.15 K, x1 = 0.2855	937.9	1373.1	0.6568
303.15 K, x1 = 0.3573	937.33	1353.7	0.6346
303.15 K, x1 = 0.4308	936.73	1333.6	0.6148
303.15 K, x1 = 0.5042	936.13	1313.1	0.5972
303.15 K, x1 = 0.578	935.52	1292.3	0.5817
303.15 K, x1 = 0.6552	934.88	1270.3	0.5675
303.15 K, x1 = 0.7204	934.33	1251.4	0.5575
303.15 K, x1 = 0.7873	933.76	1231.8	0.5486
303.15 K, x1 = 0.8548	933.19	1211.8	0.5408
303.15 K, x1 = 0.9268	932.55	1190.4	0.5331
303.15 K, x1 = 1	931.89	1168.5	0.5251
308.15 K, x1 = 0.0696	934.99	1411	0.694
308.15 K, x1 = 0.1417	934.35	1392.3	0.6678
308.15 K, x1 = 0.211	933.72	1374.3	0.6435
308.15 K, x1 = 0.2855	933.03	1354.7	0.6191
308.15 K, x1 = 0.3573	932.36	1335.6	0.5978
308.15 K, x1 = 0.4308	931.67	1315.7	0.5793
308.15 K, x1 = 0.5042	930.98	1295.5	0.563
308.15 K, x1 = 0.578	930.28	1275	0.5488
308.15 K, x1 = 0.6552	929.55	1253.3	0.5358
308.15 K, x1 = 0.7204	928.93	1234.7	0.5268
308.15 K, x1 = 0.7873	928.28	1215.4	0.5188
308.15 K, x1 = 0.8548	927.63	1195.7	0.5113
308.15 K, x1 = 0.9268	926.91	1174.4	0.5038
308.15 K, x1 = 1	926.15	1152.6	0.496
313.15 K, x1 = 0.0696	930.4	1393.7	0.662
313.15 K, x1 = 0.1417	929.67	1375.1	0.6373
313.15 K, x1 = 0.211	928.95	1357.1	0.6142
313.15 K, x1 = 0.2855	928.16	1337.5	0.5913
313.15 K, x1 = 0.3573	927.4	1318.4	0.5713
313.15 K, x1 = 0.4308	926.61	1298.4	0.5529
313.15 K, x1 = 0.5042	925.83	1278.3	0.5375
313.15 K, x1 = 0.578	925.04	1257.9	0.5237
313.15 K, x1 = 0.6552	924.22	1236.2	0.5115
313.15 K, x1 = 0.7204	923.53	1217.7	0.503
313.15 K, x1 = 0.7873	922.81	1198.4	0.4951
313.15 K, x1 = 0.8548	922.07	1178.7	0.4875
313.15 K, x1 = 0.9268	921.26	1157.4	0.4796
313.15 K, x1 = 1	920.41	1135.4	0.4723
318.15 K, x1 = 0.0696	925.81	1375.2	0.6419
318.15 K, x1 = 0.1417	924.99	1356.8	0.6179
318.15 K, x1 = 0.211	924.18	1338.9	0.5953
318.15 K, x1 = 0.2855	923.29	1319.4	0.5728
318.15 K, x1 = 0.3573	922.44	1300.3	0.553
318.15 K, x1 = 0.4308	921.55	1280.5	0.5345
318.15 K, x1 = 0.5042	920.68	1260.5	0.5185
318.15 K, x1 = 0.578	919.8	1240.2	0.5045
318.15 K, x1 = 0.6552	918.89	1218.7	0.4925
318.15 K, x1 = 0.7204	918.12	1200.3	0.4837
318.15 K, x1 = 0.7873	917.33	1181.2	0.475
318.15 K, x1 = 0.8548	916.51	1161.6	0.467
318.15 K, x1 = 0.9268	915.61	1140.4	0.4583
318.15 K, x1 = 1	914.66	1118.3	0.4499
